According to patent publication US9670242B2, “Tetracyclic anthraquinone derivatives” (Tianjin Hemay Bio-Tech Co., Ltd, priority 2012, dated 2017):

Tests used:
786-O cells = experiment: 786-O cell growth inhibition test (MTT assay); assay type: cell-based, human; settings: 72 h
Protocol: 786-O Cell Growth Inhibition Test (MTT Assay)
(§1) II. Reagents and Consumable Materials
(§2) Culture medium: 90% RPMI1640+10% FBS (fetal calf serum); Pancreatin (0.25% (w/v) solution was formulated with PBS, 0.53 mM of EDTA was added in the formulation); PBS; 96-well culture plate.
(§3) 1. A plate (10 cm) of cells in logarithmic growth phase that were normally cultured was collected;
(§4) 2. The culture solution was sucked out. The plate was washed with 5 mL of PBS once or twice;
(§5) 3. PBS was sucked out. 1.5 mL of 0.25% pancreatin was added to the plate to infiltrate the cells for 1 min;
4. The culture plate was placed in an incubator. Digestion was carried out for about 1 min at 37° C.;
(§6) 5. 3 mL of complete culture solution was added to the culture plate to stop the digestion. The cells were carefully scoured with micropipette (1 mL) to give a uniform cell suspension. The suspension was implanted into a 96-well cell culture disc by 2000 cells/100 μL per well. The culture plate was incubated overnight under 5% CO2 at 37° C. In day 2, 100 μL of culture solution comprising a compound was added in each well. The plate was further incubated for 72 h under 5% CO2 at 37° C.;
(§7) 6. The culture solution was sucked out;
(§8) 7. 100 μL of serum-free culture solution containing 0.5 mg/mL MTT was added in each well. The plate was incubated for 3 h;
(§9) 8. The culture solution was carefully sucked out;
9. 100 μL of DMSO was added in each well and vibrated to dissolve;
10. OD values were determined at 490 nM.
(§10) IV. Results and Treatments
1. Calculation of Relative Inhibition Ratio The inhibition ratio of a compound on cell growth=(PC−n)/(PC−NC)×100%
PC: OD values of cells after normal growth in control wells without a compound;
n: OD values of cells after growth in test wells with a compound;
NC: Background OD values of blank wells without a compound and cells.

Hep3B cells = experiment: Hep3B cell growth inhibition test (SRB assay); assay type: cell-based; settings: 72 h
Protocol: Hep3B Cell Growth Inhibition Test (SRB Assay)
as §1
Culture medium: 90% RPMI-1640+10% FBS; Pancreatin (0.25% (w/v) solution was formulated with PBS, 0.53 mM of EDTA was added in the formulation); PBS; 96-well culture plate.
as §3, §4
3. 1.5 mL of 0.25% pancreatin was added to the plate to infiltrate the cells;
4. The pancreatin was sucked out. The culture plate was placed in an incubator. Digestion was carried out for about 3 min at 37° C.;
as §6, with “5. 4” for “5. 3”, “uniform single” for “uniform”, “culture plate” for “culture disc”, “by 5000” for “by 2000”
6. The culture solution was sucked out. 100 uL of TCA fixed cells which were diluted to 10% were added to each well. The plate was kept in a refrigerator for 1 h at 4° C.
7. TCA stationary liquid was sucked out. Each well was washed with 150 μL of ddH2O five times;
8. After the stationary liquid was cleansed, the plate was dried in the air at the room temperature;
9. 60 μL of SRB staining solution was added in each well. The well was stained for 15 min at the room temperature;
10. The SRB staining solution was sucked out. Each well was washed with 150 μL of 1% glacial acetic acid five times;
11. After the SRB staining solution was cleansed, the plate was dried in the air at the room temperature;
12. 100 μL of 10 mM Tris was added in each well. The plate was vibrated to dissolve out SRB;
13. OD values were determined at 570 nM.
as §10
1. Calculation of Relative Inhibition Ratio The inhibition ratio of the compound on cell growth=(PC−n)/(PC−NC)×100% […]

NCI-H460 cells = experiment: NCI-H460 cell growth inhibition test (MTT assay); assay type: cell-based, human; settings: NCI-460 cells (NCI-H460 in method), 72 h
Protocol: NCI-H460 Cell Growth Inhibition Test (MTT Assay)
as §1, §2, §3, §4, §5
4. The culture plate was placed in an incubator. Digestion was carried out for about 3 min at 37° C.;
as §6, §7, §8, §9
9. […]
10. OD values were determined at 490 nM. […]

mice of ICR strain = experiment: Assay on MTD (maximum tolerated dose) in vivo of mice; settings: for MTD: caudal vein injection, q4d×5 administration regimen; for Mortality Rate (%) / Number of Dead Animals ♂/♀: i.v., 5♂/5♀ per group; for Number of Dead Animals ♂/♀: 5 administrations
Protocol: Assay on MTD (Maxium Tolerated Dose) In Vivo of Mice
Assay on Maxium Tolerated Dose of Compound
Assay animals: mice of ICR strain with a weight of 18-22 g, purchased from Beijing Vital River Laboratories Limited, License SCXK (jing) 2007-0001.
Administration Regimen: each experimental animal was administered with corresponding dosage of tested substance once by injection of caudal vain every three days. Each dosage was initially designed as 5 times of administration. The specific time of administration depended on the conditions of the animals. It should be carefully observed the behavior conditions of the animals within 2 hours after administration. The animal's behavior was observed every 4 hours in the day of administration. The survival conditions and weight of animals were recorded every day and observed for whether abnormality occurred on the body surface thereof. The experimental animals were sacrificed on 14 day after administration and dissected for observation.
I group: (20 mg/kg) group;
II group: (25 mg/kg) group;
III group: (30 mg/kg) group;
IV group: solvent control group;
There were four groups in total. Each group consisted of five male mice and five female mice.
I group: (40 mg/kg) group;
II group: (45 mg/kg) group;
III group: (50 mg/kg) group;
IV group: (55 mg/kg) group;
V group: (60 mg/kg) group;
There were five groups in total. Each group consisted of six male mice and six female mice.
a represents that the experimental animal died immediately after the injection of drug rather than death caused by cytotoxicity.
I group: (30 mg/kg) group;
II group: (40 mg/kg) group;
IV group: (60 mg/kg) group;

[1] = Solubility of the compound in water; assay type: physicochemical

SMILES	IC50 (786-O cells)	IC50 (Hep3B cells)	IC50 (NCI-H460 cells)	MTD (mice of ICR strain)	MTD (mice of ICR strain; molar equivalent)	Mortality Rate (%) (mice of ICR strain; 30 mg/kg, 5 administrations (total 150 mg/kg))	Number of Dead Animals ♂/♀ (mice of ICR strain; 30 mg/kg)	Mortality Rate (%) (mice of ICR strain; 40 mg/kg, 5 administrations (total 200 mg/kg))	Number of Dead Animals ♂/♀ (mice of ICR strain; 40 mg/kg)	Mortality Rate (%) (mice of ICR strain; 50 mg/kg, 5 administrations (total 250 mg/kg))	Number of Dead Animals ♂/♀ (mice of ICR strain; 50 mg/kg)	Mortality Rate (%) (mice of ICR strain; 60 mg/kg, 5 administrations (total 300 mg/kg))	Number of Dead Animals ♂/♀ (mice of ICR strain; 60 mg/kg)	solubility of the compound in water [1]
COc1cccc2c1C(=O)c1c(O)c3c(c(O)c1C2=O)CC(O)(C(=O)COC(=O)CCC(=O)O)CC3OC1CC(n2cccc2)C(O)C(C)O1 (stereo not drawn) [Compound A, 3′-pyrrolyldoxorubicin-14-oxo-succinic acid monoester, reference compound]	180 nM	444 nM	21 nM	approximately 30 mg/kg	~0.0433 mmol/kg	10%	0/1	50%	3/2	100%	5/5	100%	5/5	
CC(=O)O.COc1cccc2c1C(=O)c1c(O)c3c(c(O)c1C2=O)CC(O)(C(=O)COC(=O)CCC(=O)NCCCN1CCN(C)CC1)CC3O[C@H]1C[C@H](n2cccc2)[C@H](O)[C@H](C)O1 (stereo partly drawn) [Example 81, 10-((3′-(pyrrol-1-yll)-2′,3′,6′-trideoxy-alphal-l-lyxo-hexylpyranyl)oxy)-7,8,9,10-tetrahydro-6,8,11-trihydroxy-13-oxo-14-(4-((3-(4-methylpiperazin-1-yl)propyl)amino)-4-oxo-butyrato)-1-methoxy-5,12-naphthalenedione acetate]														more than 7 mg/ml
COc1cccc2c1C(=O)c1c(O)c3c(c(O)c1C2=O)CC(O)(C(=O)COC(=O)CCC(=O)NCCOCCO)CC3OC1CC(n2cccc2)C(O)C(C)O1 (stereo not drawn) [Example 62]	110 nM													
